Results from patent US20130338092A1, “COMPOUNDS AND METHODS FOR TARGETING LEUKEMIC STEM CELLS” (The Broad Institute, Inc., priority 2011, published 2013).
pIC50: −log10 of the molar value. Entries after “also recorded” stand apart in the source; their conditions may differ. Where two headings read alike, the source gives them in different places. Blank lines part the entries; values can stand above or below the compound they belong to.

Experiments:
[1] = system: LSC-enriched leukemia cells (MLL-AF9); test: Leukemia coculture assay on primary MSC stroma (cobblestoning readout); assay type: cell-based, murine; details: for pIC50: Mus musculus; for leukemia-selective activity in coculture vs normal HSPCs: primary MSC stroma
Description: Whole bone marrow were harvested from C57/B16 actin-dsRed mice (006051, Jackson Labs), subjected to red blood cell lysis (Qiagen), then granulocyte-macrophage progenitors (GMPs) were isolated by Fluorescence-activated cell sorting (FACsAria, Becton Dickinson). GMPs were spinfected twice (2500 rpm, 90 min, 37 C) in the presence of mIL3 (10 ng/ml, Peprotech), mIL6 (10 ng/ml, Peprotech), and mSCF (10 ng/ml, Peprotech) with pMSCV-MLL-AF9-Neo virus then transplanted into lethally irradiated C57/B16 recipients. After disease onset, the spleens were harvested and transplanted into sublethally irradiated secondary recipients. Subsequent transplantation of bulk spleen cells from leukemic secondary mice was repeated twice to generate leukemic GMPs from quaternary transplant leukemic mouse bone marrow.
Long bones and hips from moribund leukemic mice were harvested, cleaned, crushed and sequentially passed through 100 and 70 μM filters (Falcon). The cells were RBC lysed (Qiagen) and stained in PBS+2% FBS (Omega). Antibodies included lineage markers CD4, CD8, Gr1, Mac1, IL-7R, and Ter119 (Caltag), c-kit (17-1172-83, eBioscience), Sca-1 (11-5981-82, eBioscience), CD34 (11-0341-85, eBioscience), and CD16/32 (25-0161-82, eBioscience). Hoechst 33258 (H21491, Invitrogen) was also used, to identify live cells. Cells were sorted on a FacsAria II (Becton Dickinson).
The humerii, tibiae, ilia, femurs, and spine were isolated from actin-GFP mice (000329, Jackson Lab) crushed using a mortar and pestle, washed in phosphate-buffered saline (PBS) without magnesium and calcium (Gibco) with 0.5% fetal bovine serum (FBS) (HyClone) and filtered through a 70-μm filter. Red blood cell lysis was performed with ammonium-chloride/potassium-chloride (ACK) lysing buffer (Lonza), the cells were resuspended in α-MEM (StemCell Technologies), 20% FBS (HyClone) and 1× Pen-Strep (CellGro), plated in 25 ml in 150-cm^2 tissue-culture flasks (three per mouse), and incubated at 33° C. with 5% CO2. After 2-3 days, the medium was replaced with fresh α-MEM with 20% FBS. After 8-14 days, the cells were rinsed, split by trypsinization (CellGro), pooled, filtered through a 70 μm filter, replated at 3-4 million cells per 150-cm^2 tissue-culture flask, and grown at 33° C. with 5% CO2 for 3-4 days until nearly confluent. The cells were trypsinized, filtered, and resuspended in 0.5% FBS in PBS with biotin-conjugated anti-mouse CD105 antibody (eBioscience) for 15-30 minutes at room temperature. The CD105-labeled cells were incubated with Dynabead M-280 streptavidin-linked magnetic beads (Invitrogen) for 15-30 minutes at 4° C. with agitation and isolated using magnetic separation and rinsed once. The CD105^+ cell fraction was replated at 1-2 million cells per 150-cm^2 tissue-culture flask and incubated at 33° C. with 5% CO2 for 2-3 days.
The MSCs were trypsinized, filtered, diluted in phenol-red-free alpha-MEM with 20% FBS, and plated (30 μl for a total of 2000 cells per well) on 384-well clear-bottomed black tissue-culture treated plate (3712, Corning) pretreated with fibronectin (Millipore). Plate covers (VWR) were added, the plates were spun and at 500 with slow braking, and the cells were incubated at room temperature for 60-90 minutes before incubation at 33° C. with 5% CO2 for 3 days prior to hematopoietic cell plating. […]

[2] = system: normal HSPCs; test: Normal HSPC coculture on primary MSC stroma; details: Mus musculus
Description: The material was cleaned, crushed and sequentially passed through 100 and 70 μM filters (Falcon). […] The biotin-labeled cells were spun down, resuspended in 0.5% FBS in PBS, and incubated for 15-30 minutes at 4° C. with agitation with 1 mL of Dynabead M-280 streptavidin-linked magnetic beads per 4 mice. The bead-linked cells were depleted using magnetic separation and rinsed once. The lineage- and CD48-depleted cell fraction was labeled with streptavidin-APC-Cy7 antibody from BD Biosciences and c-kit-APC, Sca-1-FITC, CD48-Pacific Blue, and CD150 PE-Cy7 antibodies from eBioscience. DsRed-positive lineage-Sca-1+c-kit+CD48− HSCs were sorted using a FACS DiVa or FACS ARIA (BD Biosciences).
A total of 20 μL of 20 μg/mL fibronectin (Millipore) in PBS was added to each well of a 384-well clear-bottomed black tissue-culture treated plate (Corning) and incubated for 30-120 minutes at 33° C. or 37° C. […] The fibronectin solution was removed from each well using a 24-channel wand aspirator; then 30 μL of BMSC solution was added to plate 2000 BMSCs/well. […] Each plate was covered with a sterile rayon breathable membrane (VWR) and plastic lid, and then spun at 500 rpm (approximately 60× gravity) with slow braking. The plates were incubated at room temperature for 60-90 minutes before incubation at 33° C. with 5% CO2 for 3 days prior to HSC addition.
The sorted HSCs, SLAMs and progenitor cells were resuspended in phenol-red free alpha-MEM with 20% FBS and diluted to 10,000 cells/mL. A total of 20 μL of cell solution containing 200 hematopoietic cells was added to each well using a multichannel pipettor or liquid-dispensing system. Each plate was covered with a sterile rayon breathable membrane (VWR) and plastic lid, and then spun at 500 rpm (approximately 60×gravity) with slow braking. The plates were incubated at room temperature for 60-90 minutes before incubation at 33° C. with 5% CO2 overnight prior to compound or cytokine addition.
Image analysis was performed using MetaXpress software from MDC and CellProfiler software from the Broad Institute of Harvard and MIT.
Compound addition and incubation was performed as described for the LSC coculture screen above, but without a media change or readdition of the compound.
The selected set was screened in 8-point dose against both normal HSPCs with a high number of replicates (6) and LSC-enriched leukemia cells, each cocultured on primary MSCs.

[3] = system: human AML cell lines (U937, THP-1, NOMO-1, SKM-1, NB4, and OCI-AML3); test: AML cell line screen (CellTiter-Glo); assay type: cell-based; details: for pIC50: Homo sapiens, AML cell line screens, read-out: IC50s across 6 cell lines
Description: Nomo-1, THP-1, SKM-1, NB4, and U937 cell lines were grown in RPMI (12-702F, BioWhittaker), 10% FBS (10082-147, Gibco), and 1% Pen-Strep (15140-122, Gibco) and OCI-AML3 was grown in α-MEM (36453, Stem Cell Technologies), 10% FBS (10082-147, Gibco), and 1% Pen-Strep (15140-122, Gibco). 3000 cells were plated in each well in 30 μl in white, 384 well plates (3570, Corning) and 16 hours later 100 nl of the appropriate compound was added to each well. 72 hours later the plates were cooled to room temperature and 30 μl of CellTiterGlo reagent (G7570, Promega) diluted 1:1 in PBS was added to each well and the plates were analyzed using an Envision (Perkin Elmer).
First, a traditional small molecule screen was performed on six human AML cell lines (U937, THP-1, NOMO-1, SKM-1, NB4, and OCI-AML3), two of which (NOMO-1, THP-1) contain the same oncogene (MLL-AF9) used to generate the primary leukemia cells utilized in our coculture system. The cell lines were grown in isolation under standard conditions, treated with the 160 compounds at 8-point dose, and three days later the viability of each well was quantified using CellTiter-Glo reagent. The IC50s from these AML cell line screens were then compared to the IC50s from the coculture screens. […] As discussed, the existence of such differentially-active compounds is consistent with our hypothesis that coculturing can expand the pool of therapeutically promising compounds identified in high throughput format.

[4] = system: CD34+ cells from primary human leukemia samples; test: Human CD34+ CAFC assay, leukemia samples; assay type: cell-based; details: 1.25 μM to 10 μM, 18 hours exposure, read at 5 weeks (2 weeks FLT3-ITD)
Description: Samples were centrifuged over Ficoll-Paque PLUS (GE Heathcare) step gradient (2000×g for 30 min in 50 ml tubes) to obtain mononuclear cells and then CD34^+ cells were selected with immunomagnetic beads (MACS Cell Separation, Miltenyi Biotec, Auburn, Calif.), except in one case, NPM1 mutation, which was CD34^− by flow cytometry and mononuclear cells were used. 50,000 cells were placed into 12.5 cm^2 flasks (Becton Dickinson Labware, Franklin Lakes, N.J.) in co-culture with the MS-5 mouse bone marrow-derived stromal cell line (kindly provided by Dr. Itoh, Dept. of Biology, Niigata University, Japan) and DMSO control and the number of final cobblestones was later read. The number of cells needed to form one cobblestone was then placed in triplicate for each sample with each drug at serial drug dilutions from 10 μM to 0.63 μM as well as with DMSO 0.5% for control purposes and incubated overnight with Iscove's modified Dulbecco's medium (IMDM, in house media preparation laboratory)+20% fetal calf serum (FCS, Atlanta Biologicals, Lawrenceville, Ga.) with glutamine (2 mM/ml, in house media preparation laboratory), monothioglycerol (MTG, 10 nM/ml, Sigma Cell Culture, St. Louis Mo.), c-Kit ligand (20 ng/ml, Amgen, Thousand Oaks, Calif.), Flt ligand (20 ng/ml, Imclone, Bridgewater, N.J.), TPO (20 ng/ml, Amgen) and IL-3 (20 ng/ml, Amgen). Cells were then washed to remove the drugs and placed into 96 well cell culture plates (Becton Dickinson) with α-MEM (in house media preparation laboratory)+12.5% FCS+12.5% horse serum (Gemini Bio-products, West Sacramento, Calif.) with glutamine, MTG, hydrocortisone (1 nM/ml, Sigma) and IL-3 in co-culture with MS-5 stromal cells. […] The same procedure was followed with normal CD34+ cells obtained from cord blood.
(§1) The cells were treated with compound or DMSO carrier control at four doses (ranging from 1.25 μM to 10 μM) in triplicate for 18 hours, washed thoroughly, then plated onto human stromal MS-5 monolayers (Itoh, K., Tezuka, H., Sakoda, H., Konno, M., Nagata, K., Uchiyama, T., Uchino, H., and Mori, K. J. (1989). Exp Hematol 17, 145-153.) and maintained in coculture with one subsequent half media change. After 5 weeks (2 weeks for the FLT3-ITD sample (Moore, M. A., Dorn, D. C., Schuring a, J. J., Chung, K. Y., and Morrone, G. (2007). Exp Hematol 35, 105-116.)), cobblestone formation was determined, and dose-response curves against the 7 cell types were generated for each compound.

[5] = system: primary CD34+ cells from normal human cord blood; test: Human CD34+ CAFC assay, normal cells; details: 1.25 μM to 10 μM, 18 hours exposure
Description: Samples were centrifuged over Ficoll-Paque PLUS (GE Heathcare) step gradient (2000×g for 30 min in 50 ml tubes) to obtain mononuclear cells and then CD34^+ cells were selected with immunomagnetic beads (MACS Cell Separation, Miltenyi Biotec, Auburn, Calif.), except in one case, NPM1 mutation, which was CD34^− by flow cytometry and mononuclear cells were used. 50,000 cells were placed into 12.5 cm^2 flasks (Becton Dickinson Labware, Franklin Lakes, N.J.) in co-culture with the MS-5 mouse bone marrow-derived stromal cell line (kindly provided by Dr. Itoh, Dept. of Biology, Niigata University, Japan) and DMSO control and the number of final cobblestones was later read. The number of cells needed to form one cobblestone was then placed in triplicate for each sample with each drug at serial drug dilutions from 10 μM to 0.63 μM as well as with DMSO 0.5% for control purposes and incubated overnight with Iscove's modified Dulbecco's medium (IMDM, in house media preparation laboratory)+20% fetal calf serum (FCS, Atlanta Biologicals, Lawrenceville, Ga.) with glutamine (2 mM/ml, in house media preparation laboratory), monothioglycerol (MTG, 10 nM/ml, Sigma Cell Culture, St. Louis Mo.), c-Kit ligand (20 ng/ml, Amgen, Thousand Oaks, Calif.), Flt ligand (20 ng/ml, Imclone, Bridgewater, N.J.), TPO (20 ng/ml, Amgen) and IL-3 (20 ng/ml, Amgen). […]
as §1

[6] = system: primary leukemia cocultures; test: Mevalonolactone rescue experiment; assay type: cell-based, murine; details: 2 mM mevalanolactone with 1 μM lovastatin, 5 days
Description: Primary leukemia cocultures were plated as described, and treated with 2 mM mevalanolactone and/or 1 μM lovastatin as shown, for 5 days. Total leukemia cells were counted using MetaXpress software from MDC. Carriers were controlled for across all treatments. The viability of the stroma was assessed using stromal monolayers grown alone and treated in parallel, with the same readout described in the stromal toxicity screen here.

[7] = system: LSC-enriched leukemia cells on OP9 stromal cells; test: Leukemia coculture assay on OP9 stroma (primary screen); assay type: cell-based, murine; details: 5 μM
Description: Plate covers were re-added and the plates were placed in the incubator for 24 hours. The plate covers were removed, 100 nl of compound in dimethyl sulfoxide (DMSO) (final concentration 5 μM in 0.2% DMSO) was added to the appropriate wells using a CyBi-Well Vario (CyBio) the plate covers were replaced, and the plates were placed in the incubator for 3 days. Plate covers were removed, the media was aspirated from each plate, 50 μl of fresh media (50/50 coculture and OP9 conditioned media mix) was added and another 100 nl of compound was added to the appropriate wells. The plates were re-covered and placed in the incubator for 2 days. At this point, the plates were imaged using a IX Microscope (Molecular Devices) at 10× magnification at 9 sites per well in both the GFP and dsRed channels. Images were stored on the Broad Institute server for future analysis. […]
Briefly, primary dsRed^+ leukemia cells enriched for LSCs were isolated by flow cytometry and cocultured on GFP^+ OP9 stromal monolayers, treated with 5 μM of compound (to a final concentration of 0.2% DMSO), and imaged 5 days later by automated microscopy (dsRed channel for leukemia, and GFP channel for stroma) (FIG. 1). The stored images were analyzed for levels of cobblestoning as described herein.

Structure (SMILES): CCCCc1ccc2[nH]c(NC(=O)OC)nc2c1 [Parbendazole]
- pIC50 ([1]; MLL-AF9, read-out: Leukemia IC50): 7.12
- leukemia-selective activity in coculture vs normal HSPCs [1]: leukemia-selective activity
- pIC50 ([2]; read-out: Normal IC50): < 4.70
- activity against AML cell lines [3]: strong activity
- pIC50 [3]: > 6.20
- leukemia cobblestone inhibition (human CAFC) [4]: leukemia cobblestone inhibition was observed across all six primary leukemia samples
- toxicity against normal primary CD34+ cells (human CAFC) [5]: neither compound showed toxicity

- pIC50 ([1]; MLL-AF9, LSCs on primary MSC stroma, 8-point dose, read-out: Leukemia IC50): 6.33
- pIC50 [3]: > 6.20
Structure (SMILES): COC(=O)Nc1nc2cc(SC(C)C)ccc2[nH]1 [Methiazole]
- leukemia-selective activity in coculture vs normal HSPCs [1]: leukemia-selective activity
- pIC50 ([2]; read-out: Normal IC50, HSPCs on primary MSC stroma, 8-point dose): < 4.70
- activity against AML cell lines [3]: strong activity
- leukemia cobblestone inhibition (human CAFC) [4]: leukemia cobblestone inhibition was observed across all six primary leukemia samples
- toxicity against normal primary CD34+ cells (human CAFC) [5]: neither compound showed toxicity

Structure (SMILES): C[C@@]1(O)CCOC(=O)C1 [mevalonolactone]
- rescue of anti-leukemia effect of lovastatic acid [6]: rescues the anti-leukemia effect of lovastatin; also recorded: rescued the anti-leukemia effects of lovastatic acid

Structure (SMILES): CC[C@H](C)[C@@H](COC(Cc1ccccc1)C(=O)N[C@@H](CCS(C)(=O)=O)C(=O)OC(C)C)NC[C@@H](N)CS (stereo partly drawn) [L-744, 832]
- hit in primary screen [7]: independently scored
- hit in primary screen ([7]; listed as L-744832): independently hit
